The values below are quoted from earlier work in patent publication US12440530B2, “Skin solution with solubilized bakuchiol” (Envy Medical, Inc., priority 2013, dated 2025).

In data set [1] the test system is facial acne vulgaris. To be noted: in vivo.

For `C=C[C@@](C)(/C=C/c1ccc(O)cc1)CCC=C(C)C` [Bakuchiol, bakuchiol], the solubility in water result was “very insoluble in water”. Moreover, in data set [1], the “inflammatory (papules, cysts) and noninflammatory (blackheads) lesions” value is reported as “significant reductions”; the “study subjects with partial or total clearing of acne-related post inflammatory hyperpigmentation (PIH)” value is given as “Forty-five”.
For the compound `CC(C)=CCC[C@](C)(O)C1CC=C(C)CC1` (stereo partly shown) [bisabolol], the solubility in water result is “very insoluble in water”.
